Assay results reported in patent publication US7851469B2, “Isoxazole-imidazole derivatives” (Hoffmann-La Roche Inc., priority 2007, dated 2010).

Target: T1, GABA A receptor α5β3γ2 (hα5) (Homo sapiens, UniProt P18507+P31644)
T1 construct: expressed in transfected cells; host or cells: HEK293 (transiently transfected; membranes)
Assay: [3H]flumazenil competition binding assay, human GABA A α5 receptor
Settings: displacement of [3H]flumazenil (0.5 nM) from HEK293 cell membranes expressing α5β3γ2; means of two determinations
Procedure: Membrane Preparation and Binding Assay
The affinity of compounds at GABA A receptor subtypes was measured by competition for [3H]flumazenil (85 Ci/mmol; Roche) binding to HEK293 cells expressing rat (stably transfected) or human (transiently transfected) receptors of composition α1β3γ2, α2β3γ2, α3β3γ2 and α5β3γ2.
Cell pellets were suspended in Krebs-tris buffer (4.8 mM KCl, 1.2 mM CaCl2, 1.2 mM MgCl2, 120 mM NaCl, 15 mM Tris; pH 7.5; binding assay buffer), homogenized by polytron for ca. 20 sec on ice and centrifuged for 60 min at 4° C. (50000 g; Sorvall, rotor: SM24=20000 rpm). The cell pellets were resuspended in Krebs-tris buffer and homogenized by polytron for ca. 15 sec on ice. Protein was measured (Bradford method, Bio-Rad) and aliquots of 1 mL were prepared and stored at −80° C.
Radioligand binding assays were carried out in a volume of […] (96-well plates) which contained […] of cell membranes, [3H]flumazenil at a concentration of 1 nM for α1, α2, α3 subunits and 0.5 nM for α5 subunits and the test compound in the range of […]. Nonspecific binding was defined by 10^−5 M diazepam and typically represented less than 5% of the total binding. Assays were incubated to equilibrium for 1 hour at 4° C. and harvested onto GF/C uni-filters (Packard) by filtration using a Packard harvester and washing with ice-cold wash buffer (50 mM Tris; pH 7.5). After drying, filter-retained radioactivity was detected by liquid scintillation counting. Ki values were calculated using Excel-Fit (Microsoft) and are the means of two determinations.

Ki [nM] | Compound
17.2 | CC(=O)c1ccc(-n2cnc(-c3c(-c4ccc(F)cc4)noc3C(F)(F)F)c2)nc1 [Example 36, 1-(6-{4-[3-(4-Fluoro-phenyl)-5-trifluoromethyl-isoxazol-4-yl]-imidazol-1-yl}-pyridin-3-yl)-ethanone]
12.5 | CC(=O)c1ccc(-n2cnc(-c3c(-c4ccccc4)noc3C(F)(F)F)c2)cc1 [Example 3, 1-{4-[4-(3-Phenyl-5-trifluoromethyl-isoxazol-4-yl)-imidazol-1-yl]-phenyl}-ethanone]
17.1 | NC(=O)c1ccc(-n2cnc(-c3c(-c4ccc(F)cc4)noc3C(F)(F)F)c2)cc1 [Example 31, 4-{4-[3-(4-Fluoro-phenyl)-5-trifluoromethyl-isoxazol-4-yl]-imidazol-1-yl}-benzamide]
22.1 | COC(=O)c1ccc(-n2cnc(-c3c(-c4ccc(F)cc4)noc3C(F)(F)F)c2)cc1 [Example 27, 4-{4-[3-(4-Fluoro-phenyl)-5-trifluoromethyl-isoxazol-4-yl]-imidazol-1-yl}-benzoic acid methyl ester]
84.2 | Cc1ccc(-n2cnc(-c3c(-c4ccccc4)noc3C(F)(F)F)c2)cc1 [Example 8, 3-Phenyl-4-(1-p-tolyl-1H-imidazol-4-yl)-5-trifluoromethyl-isoxazole]
76.7 | O=C(O)c1ccc(-n2cnc(-c3c(-c4ccc(F)cc4)noc3C(F)(F)F)c2)cc1 [Example 28, 4-{4-[3-(4-Fluoro-phenyl)-5-trifluoromethyl-isoxazol-4-yl]-imidazol-1-yl}-benzoic acid]
58.6 | O=[N+]([O-])c1ccc(-n2cnc(-c3c(-c4ccc(Cl)cc4)noc3C(F)(F)F)c2)cc1 [Example 47, 3-(4-Chloro-phenyl)-4-[1-(4-nitro-phenyl)-1H-imidazol-4-yl]-5-trifluoromethyl-isoxazole]
87.4 | O=C(c1ccc(-n2cnc(-c3c(-c4ccc(F)cc4)noc3C(F)(F)F)c2)cc1)N1CCS(=O)(=O)CC1 [Example 35, (1,1-Dioxo-1λ6-thiomorpholin-4-yl)-(4-{4-[3-(4-fluoro-phenyl)-5-trifluoromethyl-isoxazol-4-yl]-imidazol-1-yl}-phenyl)-methanone]
28.4 | CC(C)(O)c1ccc(-n2cnc(-c3c(-c4ccc(F)cc4)noc3C(F)(F)F)c2)cc1 [Example 29, 2-(4-{4-[3-(4-Fluoro-phenyl)-5-trifluoromethyl-isoxazol-4-yl]-imidazol-1-yl}-phenyl)-propan-2-ol]

The remaining lines, values behind:

Compound | Ki [nM]
FC(F)(F)c1onc(-c2ccccc2)c1-c1cn(-c2ccccc2)cn1 [Example 1, 3-Phenyl-4-(1-phenyl-1H-imidazol-4-yl)-5-trifluoromethyl-isoxazole] | 53.2
N#Cc1ccc(-n2cnc(-c3c(-c4ccccc4)noc3C(F)(F)F)c2)cc1 [Example 5, 4-[4-(3-Phenyl-5-trifluoromethyl-isoxazol-4-yl)-imidazol-1-yl]-benzonitrile] | 41.2
O=C(NCC1CC1)c1ccc(-n2cnc(-c3c(-c4ccccc4)noc3C(F)(F)F)c2)cc1 [Example 10, N-Cyclopropylmethyl-4-[4-(3-phenyl-5-trifluoromethyl-isoxazol-4-yl)-imidazol-1-yl]-benzamide] | 23.6
O=C(NC1CC1)c1ccc(-n2cnc(-c3c(-c4ccccc4)noc3C(F)(F)F)c2)cc1 [Example 12, N-Cyclopropyl-4-[4-(3-phenyl-5-trifluoromethyl-isoxazol-4-yl)-imidazol-1-yl]-benzamide] | 11.7
O=C(NC1CCOCC1)c1ccc(-n2cnc(-c3c(-c4ccccc4)noc3C(F)(F)F)c2)cc1 [Example 13, 4-[4-(3-Phenyl-5-trifluoromethyl-isoxazol-4-yl)-imidazol-1-yl]-N-(tetrahydro-pyran-4-yl)-benzamide] | 41.2
O=C(NC1CC1)c1ccc(-n2cnc(-c3c(-c4ccc(F)cc4)noc3C(F)(F)F)c2)nc1 [Example 40, N-Cyclopropyl-6-{4-[3-(4-fluoro-phenyl)-5-trifluoromethyl-isoxazol-4-yl]-imidazol-1-yl}-nicotinamide] | 4.1
O=[N+]([O-])c1ccc(-n2cnc(-c3c(-c4ccccc4)noc3C(F)(F)F)c2)cc1 [Example 7, 4-[1-(4-Nitro-phenyl)-1H-imidazol-4-yl]-3-phenyl-5-trifluoromethyl-isoxazole] | 19.7
N#Cc1ccc(-n2cnc(-c3c(-c4ccc(F)cc4)noc3C(F)(F)F)c2)nc1 [Example 37, 6-{4-[3-(4-Fluoro-phenyl)-5-trifluoromethyl-isoxazol-4-yl]-imidazol-1-yl}-nicotinonitrile] | 32.3
FC(F)(F)c1onc(-c2ccccc2)c1-c1cn(-c2ncccn2)cn1 [Example 54, 2-[4-(3-Phenyl-5-trifluoromethyl-isoxazol-4-yl)-imidazol-1-yl]-pyrimidine] | 73
O=C(NCC(F)(F)F)c1ccc(-n2cnc(-c3c(-c4ccc(F)cc4)noc3C(F)(F)F)c2)nc1 [Example 39, 6-{4-[3-(4-Fluoro-phenyl)-5-trifluoromethyl-isoxazol-4-yl]-imidazol-1-yl}-N-(2,2,2-trifluoro-ethyl)-nicotinamide] | 4.9
CC(C)(O)c1ccc(-n2cnc(-c3c(-c4ccc(F)cc4)noc3C(F)(F)F)c2)nc1 [Example 43, 2-(6-{4-[3-(4-Fluoro-phenyl)-5-trifluoromethyl-isoxazol-4-yl]-imidazol-1-yl}-pyridin-3-yl)-propan-2-ol] | 38.2
FC(F)(F)c1ccc(-n2cnc(-c3c(-c4ccccc4)noc3C(F)(F)F)c2)cc1 [Example 4, 3-Phenyl-5-trifluoromethyl-4-[1-(4-trifluoromethyl-phenyl)-1H-imidazol-4-yl]-isoxazole] | 39.7
O=C(NC1CCOCC1)c1ccc(-n2cnc(-c3c(-c4ccc(Cl)cc4)noc3C(F)(F)F)c2)nc1 [Example 51, 6-{4-[3-(4-Chloro-phenyl)-5-trifluoromethyl-isoxazol-4-yl]-imidazol-1-yl}-N-(tetrahydro-pyran-4-yl)-nicotinamide] | 8.5
O=C(c1ccc(-n2cnc(-c3c(-c4ccccc4)noc3C(F)(F)F)c2)nc1)N1CCSCC1 [Example 23, {6-[4-(3-Phenyl-5-trifluoromethyl-isoxazol-4-yl)-imidazol-1-yl]-pyridin-3-yl}-thiomorpholin-4-yl-methanone] | 91.1
O=C(NC1CC1)c1cnc(-n2cnc(-c3c(-c4ccccc4)noc3C(F)(F)F)c2)cn1 [Example 55, 5-[4-(3-Phenyl-5-trifluoromethyl-isoxazol-4-yl)-imidazol-1-yl]-pyrazine-2-carboxylic acid cyclopropylamide] | 14.1
COC(=O)c1ccc(-n2cnc(-c3c(-c4ccccc4)noc3C(F)(F)F)c2)nc1 [Example 17, 6-[4-(3-Phenyl-5-trifluoromethyl-isoxazol-4-yl)-imidazol-1-yl]-nicotinic acid methyl ester] | 31.5
COc1ccc(-n2cnc(-c3c(-c4ccccc4)noc3C(F)(F)F)c2)cc1 [Example 9, 4-[1-(4-Methoxy-phenyl)-1H-imidazol-4-yl]-3-phenyl-5-trifluoromethyl-isoxazole] | 46.1
O=C(NCC(F)(F)F)c1ccc(-n2cnc(-c3c(-c4ccccc4)noc3C(F)(F)F)c2)cc1 [Example 11, 4-[4-(3-Phenyl-5-trifluoromethyl-isoxazol-4-yl)-imidazol-1-yl]-N-(2,2,2-trifluoro-ethyl)-benzamide] | 17.6
